This data set in a line: gradient 5% acetonitrile 3 min, to 50% in 2 min, to 85% in 15 min, held 3 min, 100 µL/min. Conditions: column: Zorbax Extend-C18 2.1 x 50 mm; eluents: water / acetonitrile, 0.1% formic acid. The essentials: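 Values are retention times taken from adduct peaks that software picked and an analyst inspected. The pure standards were run as mixtures of ~100 molecules on HPLC linked to a quadrupole time-of-flight mass spectrometer, in positive and negative ionization mode. A Zorbax Extend-C18 column (2.1 × 50 mm, 1.8 μm) was used at 100 μL/min with water and acetonitrile, each including 0.1% formic acid.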
In the case of `CC(=O)c1ccc(OC(=O)c2cc3c(C)nn(-c4ccccc4)c3s2)cc1`, the RP-LC retention time worked out at 1310 s.

In the case of `COc1ccccc1NC(=O)CN1C(=O)C(c2ccc(Cl)cc2)=NC1(C)C`, the RP-LC retention time came out at 922 s.

`O=C(NCc1cccnc1)c1ccc(CN2CCN(Cc3ccc(F)cc3)C(=O)C2=O)cc1` returned an RP-LC retention time of 597 s.

`COc1ccc(C)cc1NC(=O)Cn1nc2c(Oc3cccc(F)c3)nccn2c1=O`: the RP-LC retention time came out at 936 s.

Take `CSc1cccc(NC(=O)CN2C(=O)CCn3nc(-c4cn(C)c5ccccc45)cc32)c1`: the RP-LC retention time worked out at 902 s.

Molecule `C[C@@H]1c2ccccc2CCN1C(=O)Cc1ccccc1F` showed an RP-LC retention time of 950 s.

The molecule `Cc1noc(C2CN(C(=O)Nc3cccc(F)c3C)CC23CCOCC3)n1` (stereo not given) returned an RP-LC retention time of 1030 s.

`CCN(CC)C(=O)c1ccc2c(c1)nnn2CCNC(=O)Nc1cc(F)ccc1F` displayed an RP-LC retention time of 714 s.

Turning to `CCC1CN2C=NC(N3CCN(C(=O)Nc4cccc(SC)c4)CC3)=CC2=N1` (stereo not given), the RP-LC retention time came to 663 s.

Consider `CCn1cc(CCNS(=O)(=O)c2ccc(C)cc2)c2cccnc21`, for which the RP-LC retention time was 786 s.

In turn, `COc1cc(C(=O)N2CCN(c3cc(-c4ccc(Cl)cc4)[nH]n3)CC2)cc(OC)c1OC` displayed an RP-LC retention time of 827 s.

The molecule `COC(=O)c1cnc2nc(C)ccc2c1Nc1cccc(Cl)c1` registered an RP-LC retention time of 705 s.

In turn, `COc1ccc(OC)c(CNC(=O)C2(CCO)CCN(c3ncccn3)C2)c1` (stereo not given) returned an RP-LC retention time of 618 s.

For the molecule `CC1CCCN(Cc2nc(-c3ccc(N4CCSCC4)nc3)no2)C1` (stereo not given), the RP-LC retention time worked out at 856 s.

`CC(C)CCNC(=O)N1CCC2(CC1)C(=O)N(C)c1ccccc12`: the RP-LC retention time amounted to 813 s.

Molecule `CCOC(=O)c1c(C)[nH]c(C(=O)N2CCC(CC(=O)NCc3cccc(Cl)c3)CC2)c1C` had an RP-LC retention time of 824 s.

With `COc1ccc(OC)c(S(=O)(=O)N2[C@H]3CC[C@@H]2c2cnc(C)nc2C3)c1`, the RP-LC retention time came out at 703 s.

As to `O=S(=O)(c1cccc(Cl)c1)N1CCN(c2cnn3c(C4CC4)nnc3c2)CC1`, the RP-LC retention time is 756 s.

`COC[C@@H]1CN(C(=O)c2ccoc2C)C[C@H]1c1nc(C)no1` had an RP-LC retention time of 539 s.

`CCN(CC)CCCC(C)Nc1nc(C)cc(Nc2ccc3nc(C)cc(N)c3c2)n1` (stereo not given) had an RP-LC retention time of 568 s.

Consider `Cc1ccc(CNC(=O)c2cn3ccncc3n2)cc1`, for which the RP-LC retention time was 686 s.

As to `Cc1cc(C)cc(N2CCC(NC(=O)NCc3cccc(F)c3)C2=O)c1` (stereo not given), the RP-LC retention time is 851 s.

`Cc1ccc(-n2c(N3CCCC(C(=O)NCc4ccccc4Cl)C3)nc3ccsc3c2=O)cc1` (stereo not given) returned an RP-LC retention time of 946 s.

Regarding `COCCn1cc(CCNC(=O)Nc2ccccc2C)c2cccnc21`, the RP-LC retention time was 694 s.

`O=S(=O)(Nc1cccc(F)c1)c1ccc(-c2nnc(C3CCC3)o2)o1` had an RP-LC retention time of 856 s.

Molecule `CCCN1C(=O)c2cc(S(=O)(=O)Nc3ccc(F)cc3F)ccc2Oc2cccnc21` yielded an RP-LC retention time of 1050 s.

In the case of `Cn1c(=O)sc2cc(S(=O)(=O)N3CCC(C(=O)N4CCOCC4)CC3)ccc21`, the RP-LC retention time came out at 663 s.

Molecule `Cc1ccccc1-c1noc(Cn2c(=O)n(-c3cccc(F)c3)c(=O)c3sccc32)n1` showed an RP-LC retention time of 1030 s.

`Cc1cc(C(=O)N2CCOCC2)nn1CC(=O)NCc1ccc2c(c1)OCO2` displayed an RP-LC retention time of 634 s.

For the molecule `CCCn1c(=O)c(N2CCN(C(=O)C3CCC3)CC2)nc2ccccc21`, the RP-LC retention time amounted to 994 s.

The molecule `O=C(Cn1c(=O)n(C2CC2)c(=O)c2nscc21)N1CCN(c2ccccc2F)CC1` returned an RP-LC retention time of 713 s.

`Cc1ccc(C(C)NC(=O)c2ccc3[nH]cc(C(=O)C(=O)N4CCCCCC4)c3c2)c(C)c1` (stereo not given) displayed an RP-LC retention time of 919 s.

`COC(=O)c1ccccc1NC(=O)CSc1cc(C)nc(-c2cccnc2)n1` displayed an RP-LC retention time of 734 s.

Molecule `O=C(NCC(F)(F)F)C1CCN(C(=O)c2c(F)cccc2Cl)CC1` gave an RP-LC retention time of 686 s.

`CCCN(CCC#N)C(=O)CN1CC2=C(C1=O)C(c1ccccc1Cl)NC(=O)N2C` (stereo not given): the RP-LC retention time was determined as 634 s.

For the molecule `O=C(c1cccs1)N1CCCC(c2ccnc(-c3ccccc3)n2)C1` (stereo not given), the RP-LC retention time was 1020 s.

`Cc1cccc(Nc2nc(-c3ccc(F)c(C)c3)cs2)n1` showed an RP-LC retention time of 992 s.

`Cc1ccc(-c2cc(C(=O)N3CCC(NC(=O)c4ccc5c(c4)OCO5)CC3)[nH]n2)c(C)c1` registered an RP-LC retention time of 787 s.

In the case of `Cn1cccc1C(=O)N1CCCCC1c1nncn1Cc1ccccc1` (stereo not given), the RP-LC retention time worked out at 745 s.

`O=C(Cn1ncc2c(N3CCN(c4ccccn4)CC3)ncnc21)Nc1ccc(Cl)cc1`: the RP-LC retention time stood at 643 s.

For the molecule `COc1ccc(-c2csc(Nc3cc(C)ccn3)n2)cc1`, the RP-LC retention time was determined as 783 s.

As to `O=C(CN1CCN(Cc2ccc(F)cc2Cl)C1=O)N1CCN(c2ccccc2)CC1`, the RP-LC retention time turned out to be 881 s.

Molecule `CC(=O)Nc1ccc2c(c1)Sc1ncccc1C(=O)N2C(C)C` registered an RP-LC retention time of 669 s.

`Cc1noc(C2CN(C(=O)c3cc4ccccc4[nH]3)C2)n1`: the RP-LC retention time is 675 s.

On to `CCC(=O)Nc1ccc2c(c1)Sc1ncccc1C(=O)N2C`, for which the RP-LC retention time came to 630 s.

Molecule `Cc1ccc(S(=O)(=O)N2CC(=O)N(c3ccccc3F)C(C)(C(=O)NC3CCCC3)C2)cc1` (stereo not given) registered an RP-LC retention time of 959 s.

The molecule `CCOc1ccccc1NC(=O)Cn1c(C)nc2c(sc3nc(-c4ccccc4)ccc32)c1=O` came in with an RP-LC retention time of 1160 s.

As for `O=C(Nc1ccc(Br)cc1F)c1cc(-c2cccnc2)n[nH]1`, the RP-LC retention time came out at 733 s.

`O=C(NCCCN1CCCC1)C1CCN(c2cnc(N3CCCC3)nc2)CC1` came in with an RP-LC retention time of 542 s.

The molecule `CCn1c(C(=O)N2CCN(c3cccc(OC)c3)CC2)cc2sccc21` had an RP-LC retention time of 1050 s.

`CCOC(=O)c1cccc(Nc2c(-c3ccc(OC)cc3)nc3cnccn23)c1` yielded an RP-LC retention time of 668 s.

`Cc1ccc(S(=O)(=O)N2C(=O)CCC2C(=O)Nc2cccc(C)c2C)cc1C` (stereo not given): the RP-LC retention time was 976 s.

With `Cc1ccccc1NS(=O)(=O)c1cc(-c2cc(C(F)(F)F)on2)sc1C`, the RP-LC retention time was determined as 1180 s.

`O=C(Nc1ccccc1)C1CCCN(c2ncnc3c2nc2n3CCCCC2)C1` (stereo not given) registered an RP-LC retention time of 774 s.

`Nc1ccc(C(=O)Nc2ccc(Nc3ccncc3)cc2)cc1` registered an RP-LC retention time of 602 s.

With `Cc1ccc(NC(=O)Cn2c(C)nc3onc(C)c3c2=O)c(Cl)c1`, the RP-LC retention time came to 835 s.

Turning to `COC[C@@H]1CN(S(=O)(=O)C(C)C)C[C@H]1c1ccccn1`, the RP-LC retention time came to 619 s.

Turning to `CCOC(=O)c1nc(N(C)c2cc(C)ccc2C)c2ccccc2n1`, the RP-LC retention time worked out at 1010 s.

`O=C(CSc1nc(-c2cccc([N+](=O)[O-])c2)cs1)N1CCOCC1` had an RP-LC retention time of 756 s.

For the molecule `Cc1cccc(OCc2nc(-c3cccc(-c4ccn[nH]4)c3)no2)c1`, the RP-LC retention time is 999 s.

In turn, `O=C(Nc1cccc(-c2ccc(N3CCOCC3)nn2)c1)Nc1ccc(F)cc1F` came in with an RP-LC retention time of 723 s.

For the molecule `O=C1CC(c2ccc3c(c2)OCO3)c2c(c(C(=O)O)cn2-c2cccc(F)c2)N1` (stereo not given), the RP-LC retention time stood at 777 s.

In turn, `CCSc1nnc(NC(=O)CNC(=O)c2ccc(=O)[nH]c2)s1` had an RP-LC retention time of 571 s.

Molecule `CC(C)n1cnc2cc(CNC(=O)C3(c4ccccc4)CC3)ccc21` yielded an RP-LC retention time of 648 s.

For `O=C(NCc1ccccc1Cl)c1c[nH]c2ncccc12`, the RP-LC retention time came to 708 s.

Take `Cc1nnc(-c2ccc3ccn(CC(=O)Nc4cccc(C#N)c4)c3c2)o1`: the RP-LC retention time turned out to be 798 s.

`O=C(CCc1c(-c2ccc(F)cc2)nc2ccccn12)Nc1cccc(C(F)(F)F)c1`: the RP-LC retention time is 752 s.

`CCc1cc(C(=O)N2CCN(c3ccccn3)CC2)nc2ccnn12` yielded an RP-LC retention time of 573 s.

Molecule `CN(C)S(=O)(=O)N1CC(c2nc(Cc3cccnc3)no2)C1` came in with an RP-LC retention time of 543 s.

In turn, `Cn1nc(C(=O)N2CCN(c3ccccc3Cl)CC2)ccc1=O` showed an RP-LC retention time of 727 s.

In turn, `COc1cccc(C2c3c(oc4ccc(C)cc4c3=O)C(=O)N2CCCN2CCOCC2)c1OC` (stereo not given) came in with an RP-LC retention time of 808 s.

With `O=C(NCc1ccc(F)cc1)c1ccc(-n2nc(N3CCCC3)ccc2=O)cc1`, the RP-LC retention time was 810 s.

For `Fc1ccc(C(OCCCc2cnc[nH]2)c2ccc(F)cc2)cc1`, the RP-LC retention time came out at 833 s.

As to `CCc1nc2cc(-c3noc(-c4sc(C)nc4C)n3)ccc2o1`, the RP-LC retention time turned out to be 1060 s.

Consider `CCc1nc2cc(-c3noc(CNC(=O)Cc4ccc(Cl)cc4)n3)ccc2o1`, for which the RP-LC retention time worked out at 882 s.

Regarding `Cc1cc2n(n1)CCC(=O)N2CCCC(=O)NCCCOC(C)C`, the RP-LC retention time worked out at 618 s.

In turn, `CN(C)C(=O)c1n[nH]c2c1CN(C(=O)c1cc(F)cc(F)c1)CC2` yielded an RP-LC retention time of 635 s.

For the molecule `Cc1ccc(-c2nc(-c3ccc4nncn4c3)no2)cc1`, the RP-LC retention time was found to be 870 s.

With `COc1cccc(N2CC(C(=O)Nc3nnc(SCc4ccccc4)s3)CC2=O)c1` (stereo not given), the RP-LC retention time was determined as 820 s.

With `CCC(=O)Nc1ccc2c(c1)CCC(=O)N2CCOC`, the RP-LC retention time was 618 s.

The values above are taken from the METLIN SMRT retention time set (Domingo-Almenara et al. 2019).
